Assay results: patent publication US20140303216A1, “COMPOSITIONS AND METHODS FOR INDUCING DISRUPTION OF BLOOD VASCULATURE AND FOR REDUCING ANGIOGENESIS” (BOARD OF REGENTS, THE UNIVERSITY OF TEXAS SYSTEM, priority 2011, published 2014)
Where two headings read alike, the source gives them in different places.

Legend:
[1] = mice; cited from earlier work
VEGF = VEGF levels in HT1080 cells (Western blotting, ELISA); format: cell-based, human; conditions: 250 μM TBZ, 24 hours
Method: Cells were lysed in cell lysis buffer (Cell Signaling Technology) containing 1 mM PMSF, and analyzed by SDS-PAGE and western blotting using anti-VEGF (Santa Cruz, A-20) or anti-GAPDH (Cell Signaling Technology) antibodies. The secreted VEGF level in culture media was determined by enzyme-linked immunosorbent assay (ELISA; R&D) according to the manufacturer's instructions.

[2] = rats; cited from earlier work
[3] = system: vasculature within kdr:GFP frogs; assay: Time-lapse fluorescence microscopy of vasculature in kdr:GFP Xenopus embryos; format: in vivo, Xenopus laevis
Excerpt: Immunohistochemistry and kdr:GFP transgenic Xenopus laevis were imaged on an inverted Zeiss LSM5 Pascal confocal microscope and Zeiss 5-LIVE Fast Scanning confocal microscope. Confocal images were processed and cropped in Imaris software (BITPLANE) and Adobe Illustrator and Adobe Photoshop for compilation of Figures.
To analyze action of TBZ precisely on inhibition of angiogenesis and disruption of vasculature, we tested TBZ on two different developmental stages. Xenopus late tailbud embryos at stage 31 were selected for testing the inhibitory effect of TBZ on angiogenesis (FIG. 3A-D). This embryonic stage coincides with the onset of intersomitic vein (ISV) angiogenesis, the process of forming smaller blood vessels by sprouting from pre-existing blood vessels. To observe disruption of existing vasculature, we selected stage 35/36 embryos in which the posterior cardinal vein (PCV) and ISV are already developed (FIG. 15).
As a direct test of the vascular disrupting activity of TBZ, we performed time-lapse imaging of developing vasculature. Using Kdr-GFP transgenic embryos^12 and time-lapse confocal microscopy^22, we could effectively image developing vasculature in vivo for periods of up 20 hours. During this time, the growth of existing blood vessels and the sprouting of new vasculature could be easily followed (FIG. 16). […] Upon longer exposures, endothelial cells scattered and many underwent dramatic rounding (FIGS. 5A, 17).

HUVECs = assay: HUVEC cytoskeleton imaging (actin stress fibers, β-tubulin immunohistochemistry)
Method: Alexa Fluor 488 phalloidin (Invitrogen) and/or 4′,6-Diamidino-2-phenylindole (Sigma) were added as needed.

[4] = system: HT1080 human fibrosarcoma xenograft; assay: HT1080 human fibrosarcoma xenograft model; format: in vivo, athymic Cre nu/nu mice; conditions: TBZ 50 mg/kg
Method: Specific pathogen-free athymic Cre Nu/nu mice were purchased from Charles River Laboratories. The HT-1080 human fibrosarcoma cell line was obtained from the American Type Culture Collection (ATCC). HT-1080 cells were cultured in DMEM (Gibco) containing 10% fetal bovine serum (FBS, Gibco) in tissue culture flasks at 37° C. in a humidified atmosphere of 5% CO2. In order to generate a mouse xenograft model, a suspension of the HT-1080 cells (3×10^6 in 50p1 PBS) mixed with an equal volume of Matrigel (BD Bioscience) was subcutaneously implanted into the flank region of 7-8 week old female mice. Upon establishment of tumors (approx. 40 mm^3), mice were given intraperitoneal injections of 1 mg thiabendazole (Sigma-Aldrich), suspended in 20 μl 100% DMSO. As a control, an equal volume of DMSO was injected in the same manner. Tumor growth was monitored by measuring the length and width of each tumor using digital calipers, and the tumor volume in mm^3 calculated by the formula: Volume=(width)^2×length/2. Upon a tumor reaching the maximum size permitted by the Institutional Animal Care and Use Committee (1.5 cm in diameter), the mouse was sacrificed, and the tumor excised. […] Control cells received 1% DMSO.

Xenopus embryos = assay: Xenopus embryo morphology and developmental defects; format: in vivo
Excerpt: Female adult Xenopus were ovulated by injections of human chorionic gonadotropin, and eggs were fertilized in vitro and dejellied in 3% cysteine (pH 7.9) and subsequently reared in 1⁄3×Marc's modified Ringer's (MMR) solution. For microinjections, embryos were placed in a solution of 2% Ficoll in 1⁄3×MMR solution, injected using forceps and an Oxford universal manipulator, reared in 2% Ficoll in 1⁄3×MMR to stage 9, then washed and reared in 1⁄3×MMR solution alone. For bilateral rab11b knock-down experiments, the posterior cardinal vein and intersomitic veins were targeted by injecting Morpholino antisense oligonucleotides (MOs) into the two ventral cells equatorially at the four-cell stage. For unilateral knockdown, only one ventral cell was injected. MOs were injected at 40 ng per blastomere. For the experiments to see the drug effects, embryos were placed in a solution of each chemical dissolved in 1% DMSO diluted in 1⁄3×MMR during indicated stages. For bead micro-surgery implantation, Affi-Gel Blue Gel beads (Bio-Rad) were soaked with 0.7 mg/ml recombinant mouse VEGF 164 aa (R&D systems) or BSA as a control. Whole-mount in situ hybridization for […] performed as described^29. Immunostaining for Xenopus was performed as previously described (Lee et al., 2008). Embryos at stage 35-36 were fixed in 1×MEMFA. 12/101 (1:500; DSHB), and primary antibodies were detected with Alexa Fluor-488 or 555 goat anti-mouse Immunoglobulin (IgG).

mitochondria = assay: Mitochondrial mass and membrane potential (MitoTracker Green/Red); format: cell-based
[5] = system: human umbilical vein endothelial cells (HUVECs); assay: HUVEC tube formation, in vitro angiogenesis assay; format: cell-based
Method: Human umbilical vein endothelial cells (HUVECs) were purchased from Clonetics, and were used between passages 4 and 9. HUVECs were cultured on 0.1% gelatin-coated (Sigma) plates in endothelial growth medium-2 (EGM-2; Clonetics) in tissue culture flasks at 37° C. in a humidified atmosphere of 5% CO2. HUVECs (10^4 cells) were seeded in a 96-well plate coated with 50 μl of ECMatrix (Chemicon) or Matrigel (BD Bioscience) according to the manufacturer's instructions. Cells were incubated for 16 h on EGM-2 containing thiabendazole, dissolved in 1% DMSO. Negative control cells were treated with 1% DMSO in the same manner. As a positive control, siRNA versus the human HoxA9 sequence^30 was transfected into HUVECs using Lipofectamine RNAiMAX (Invitrogen) according to the manufacturer's instructions. Tube formation was observed using an inverted microscope (Nikon, eclipse TS100), and branch points were measured using ImageJ software (http://rsb.info.nih.gov/ij).

## c1ccc2[nH]c(-c3cscn3)nc2c1 [TBZ, 4-(1H-1,3-benzodiazol-2-yl)-1,3-thiazole]
[1]
  effect on fertility: does not appear to affect fertility
VEGF
  level of VEGF expressed by HT1080 cells (Western blotting): did not alter
  level of VEGF secreted by HT1080 cells (ELISA): did not alter
[2]
  effect on fertility: does not appear to affect fertility
[3]; Kdr-GFP transgenic embryos
  exposure time after which established blood vessels disintegrated: approximately 90 minutes
[3]; Kdr-GFP transgenic embryos, time-lapse confocal microscopy
  growth and sprouting of blood vessels: completely prevented
[3]; in vivo
  persistence of vascular gene expression in dispersed, rounded kdr-GFP+ endothelial cells after treatment: up to 17 hours
[3]; in vivo imaging of the vasculature
  time within which endothelial cells retract from one another and round up: ≤ 2 h
[3]; washout after TBZ-induced cell dispersal and rounding
  recovery of vasculature after washout of the drug: significant re-spreading of endothelial cells and re-formation of blood vessels
HUVECs; 250 μM TBZ versus 1% DMSO control
  actin stress fibers: disorganization of actin stress fibers
HUVECs; HUVEC cells in culture, 250 μM TBZ
  gross organization of the MT cytoskeleton: only a very slight effect
[4]
  tumor microvessel density in xenografts (CD31 staining): significantly impair
[4]; intraperitoneal, 27 d
  xenograft growth, time course of tumor size and final tumor mass: significantly slowed
Xenopus embryos; 250 μM TBZ, 1% DMSO, treated at stage 31, imaged at stages 35-36, compared to 1% DMSO control
  somitic muscle, defined with the 12/101 antibody: normal
Xenopus embryos; at the stages when the vasculature was severely disrupted
  overall morphology and patterning of treated Xenopus embryos: grossly normal
mitochondria
  mitochondrial mass (MitoTracker Green signal): no differences
  mitochondrial membrane potential (ratio of MitoTracker Red signal to Mitotracker Green signal): no differences
[5]; 100 and 250 μM TBZ in 1% DMSO, 16 h
  angiogenesis (tube formation) in HUVECs: inhibited angiogenesis in a dose-dependent manner
[5]; human cells in vitro
  concentration at which angiogenesis inhibition was observed: 100 to 250 µM
